Earlier results in patent US20050025723A1, “Sunburn treatment and sunburn prevention method” (priority 2000, published 2005).
“Also recorded” adds a separate entry of the source.

Assays:
fever = conditions: compared with parent peptide α-MSH or α-MSH(11-13); literature statements
inflammation = conditions: in vitro and in vivo; compared with parent molecule or the L-form tripeptide; literature statements
learning and memory = conditions: in vivo
[1] = system: melanocytes and melanoma cells

In the case of “8-13 sequence: α-MSH 8-13 sequence (RWGKPV; Designed polypeptide with anti-inflammatory, anti-bacterial, anti-fungal and antipyretic properties.)”, the “antipyretic potency / activity (reducing fever)” value (fever) is listed as “greater than that of the 11-13 sequence”.
For “9-13 sequence: α-MSH 9-13 sequence (WGKPV; C-terminal sequences of alpha-MSH)”, the “antipyretic potency / activity (reducing fever)” value (fever) is listed as “almost devoid of activity”.
For “10-13 sequence: α-MSH 10-13 sequence formed by addition of glycine to α-MSH(11-13) (GKPV; Designed polypeptide with anti-inflammatory, anti-bacterial, anti-fungal and antipyretic properties.)”, the “antipyretic potency / activity (reducing fever)” value (fever) is given as “slightly decreased potency”.
In the case of Ac-[D-K11]-α-MSH 11-13-NH2, the “anti-inflammatory activity / potency” value (inflammation) is given as “same general potency as the L-form of the tripeptide”.
In the case of MEHFRWG [α-MSH sequence (4-10)], the “antipyretic potency / activity (reducing fever)” value (fever) is listed as “little”, the “learning and memory behavioral effects” value (learning and memory) is listed as “has learning and memory behavioral effects” and the “anti-inflammatory activity / potency” value (inflammation) is listed as “little”.
For [Nle^4,D-Phe^7]α-MSH, the “antipyretic potency / activity (reducing fever)” value (fever) is listed as “approximately ten times more potent than the parent peptide” and the “biological activity on melanocytes and melanoma cells” value [1] is listed as “marked biological activity”.
For lysine-proline-valine [KPV], the “antipyretic potency / activity (reducing fever)” value (fever) is given as “parallel those of the parent molecule” and the “anti-inflammatory activity / potency” value (inflammation) is given as “parallel those of the parent molecule; also recorded: effective over a very broad range of concentrations, including picomolar concentrations”.
